Experimental data: the NIST ThermoML archive (doi:10.1021/je050509f)

Test: mn = molality of the nth substance listed, in mol/kg
Conditions: Liquid, Vibrating tube method

[Cl-].[Cl-].[Zn+2] [zinc chloride] + CO
Conditions | mass density [kg/m3]
348.27 K, 19998 kPa, m1 = 0.1348 | 775.25
348.27 K, 20001 kPa, m1 = 5.367 | 1160.36
348.27 K, 20003 kPa, m1 = 1.039 | 851.34
348.27 K, 24987 kPa, m1 = 1.977 | 930.28
348.27 K, 24989 kPa, m1 = 0.8018 | 837.48
348.27 K, 24994 kPa, m1 = 0.1348 | 780.25
348.27 K, 24994 kPa, m1 = 1.039 | 856.19
348.27 K, 24996 kPa, m1 = 0.4768 | 810.44
348.27 K, 25001 kPa, m1 = 5.367 | 1164.74
348.27 K, 29985 kPa, m1 = 0.4768 | 815.14
348.27 K, 29987 kPa, m1 = 0.8018 | 842.17
348.27 K, 29990 kPa, m1 = 1.977 | 934.86
348.27 K, 29998 kPa, m1 = 0.1348 | 785.01
348.27 K, 30011 kPa, m1 = 5.367 | 1169.01
348.27 K, 30014 kPa, m1 = 1.039 | 860.81
348.27 K, 34985 kPa, m1 = 1.977 | 939.27
348.27 K, 34987 kPa, m1 = 0.4768 | 819.64
348.27 K, 34988 kPa, m1 = 0.8018 | 846.66
348.27 K, 34990 kPa, m1 = 1.039 | 865.23
348.27 K, 34990 kPa, m1 = 5.367 | 1173.15
348.27 K, 34998 kPa, m1 = 0.1348 | 789.52
348.27 K, 39984 kPa, m1 = 5.367 | 1177.19
348.27 K, 39991 kPa, m1 = 1.039 | 869.48
348.27 K, 39993 kPa, m1 = 1.977 | 943.53
348.27 K, 39998 kPa, m1 = 0.1348 | 793.81
348.27 K, 39999 kPa, m1 = 0.8018 | 850.97
348.27 K, 40007 kPa, m1 = 0.4768 | 823.94
373.3 K, 523 kPa, m1 = 0.8018 | 783.25
373.3 K, 527 kPa, m1 = 0.4768 | 755.9
373.3 K, 527 kPa, m1 = 1.977 | 876.84
373.3 K, 533 kPa, m1 = 0.1348 | 725.48
373.3 K, 535 kPa, m1 = 5.367 | 1112.11
373.3 K, 536 kPa, m1 = 1.039 | 802.51
373.3 K, 4986 kPa, m1 = 5.367 | 1117.02
373.3 K, 4988 kPa, m1 = 1.039 | 808.88
373.3 K, 4990 kPa, m1 = 0.4768 | 762.64
373.3 K, 4994 kPa, m1 = 0.8018 | 789.83
373.3 K, 4995 kPa, m1 = 0.1348 | 732.41
373.3 K, 5003 kPa, m1 = 1.977 | 882.85
373.3 K, 9984 kPa, m1 = 0.4768 | 769.58
373.3 K, 9984 kPa, m1 = 0.8018 | 796.61
373.3 K, 9985 kPa, m1 = 0.1348 | 739.51
373.3 K, 9986 kPa, m1 = 1.977 | 889.12
373.3 K, 9995 kPa, m1 = 1.039 | 815.55
373.3 K, 10002 kPa, m1 = 5.367 | 1122.33
373.3 K, 14985 kPa, m1 = 0.4768 | 776
373.3 K, 14990 kPa, m1 = 5.367 | 1127.43
373.3 K, 15001 kPa, m1 = 0.1348 | 746.08
373.3 K, 15005 kPa, m1 = 0.8018 | 802.94
373.3 K, 15009 kPa, m1 = 1.039 | 821.76
373.3 K, 15009 kPa, m1 = 1.977 | 895.06
373.3 K, 19986 kPa, m1 = 0.1348 | 752.14
373.3 K, 19987 kPa, m1 = 0.4768 | 781.98
373.3 K, 20001 kPa, m1 = 1.039 | 827.53
373.3 K, 20005 kPa, m1 = 0.8018 | 808.85
373.3 K, 20008 kPa, m1 = 5.367 | 1132.37
373.3 K, 20012 kPa, m1 = 1.977 | 900.64
373.3 K, 24985 kPa, m1 = 0.4768 | 787.59
373.3 K, 24989 kPa, m1 = 1.039 | 832.97
373.3 K, 24990 kPa, m1 = 0.8018 | 814.38
373.3 K, 24992 kPa, m1 = 0.1348 | 757.83
373.3 K, 25001 kPa, m1 = 1.977 | 905.94
373.3 K, 25001 kPa, m1 = 5.367 | 1137.12
373.3 K, 29985 kPa, m1 = 0.1348 | 763.18
373.3 K, 29988 kPa, m1 = 1.977 | 910.98
373.3 K, 29993 kPa, m1 = 1.039 | 838.14
373.3 K, 29994 kPa, m1 = 5.367 | 1141.72
373.3 K, 29997 kPa, m1 = 0.8018 | 819.65
373.3 K, 30012 kPa, m1 = 0.4768 | 792.89
373.3 K, 34983 kPa, m1 = 0.8018 | 824.61
373.3 K, 34984 kPa, m1 = 1.039 | 843.03
373.3 K, 34986 kPa, m1 = 5.367 | 1146.17
373.3 K, 34987 kPa, m1 = 0.4768 | 797.89
373.3 K, 34997 kPa, m1 = 1.977 | 915.82
373.3 K, 35008 kPa, m1 = 0.1348 | 768.23
373.3 K, 39990 kPa, m1 = 1.039 | 847.71
373.3 K, 39991 kPa, m1 = 0.8018 | 829.37
373.3 K, 39993 kPa, m1 = 0.1348 | 773.04
373.3 K, 39995 kPa, m1 = 5.367 | 1150.53
373.3 K, 39997 kPa, m1 = 1.977 | 920.45
373.3 K, 40000 kPa, m1 = 0.4768 | 802.68
398.33 K, 893 kPa, m1 = 0.1348 | 695.88
398.33 K, 899 kPa, m1 = 5.367 | 1083.75
398.33 K, 904 kPa, m1 = 1.039 | 773.5
398.33 K, 905 kPa, m1 = 1.977 | 848.36
398.33 K, 907 kPa, m1 = 0.8018 | 754.11
398.33 K, 908 kPa, m1 = 0.4768 | 726.55
398.33 K, 4981 kPa, m1 = 0.4768 | 734.09
398.33 K, 4985 kPa, m1 = 1.977 | 854.8
398.33 K, 4988 kPa, m1 = 0.8018 | 761.4
398.33 K, 4994 kPa, m1 = 0.1348 | 703.77
398.33 K, 5002 kPa, m1 = 5.367 | 1088.78
398.33 K, 5004 kPa, m1 = 1.039 | 780.59
398.33 K, 9983 kPa, m1 = 0.4768 | 742.44
398.33 K, 9984 kPa, m1 = 0.1348 | 712.39
398.33 K, 9984 kPa, m1 = 0.8018 | 769.52
398.33 K, 9988 kPa, m1 = 5.367 | 1094.64
398.33 K, 9993 kPa, m1 = 1.039 | 788.48
398.33 K, 9999 kPa, m1 = 1.977 | 862.15
398.33 K, 14985 kPa, m1 = 1.039 | 795.7
398.33 K, 14988 kPa, m1 = 0.1348 | 720.18
398.33 K, 14993 kPa, m1 = 0.4768 | 750.05
398.33 K, 14994 kPa, m1 = 0.8018 | 776.95
398.33 K, 15018 kPa, m1 = 5.367 | 1100.25
398.33 K, 15019 kPa, m1 = 1.977 | 868.94
398.33 K, 19982 kPa, m1 = 0.8018 | 783.77
398.33 K, 19982 kPa, m1 = 1.039 | 802.38
398.33 K, 19984 kPa, m1 = 0.1348 | 727.3
398.33 K, 19994 kPa, m1 = 0.4768 | 757.02
398.33 K, 19996 kPa, m1 = 1.977 | 875.28
398.33 K, 20003 kPa, m1 = 5.367 | 1105.62
398.33 K, 24984 kPa, m1 = 1.039 | 808.61
398.33 K, 24989 kPa, m1 = 5.367 | 1110.77
398.33 K, 24992 kPa, m1 = 0.4768 | 763.47
398.33 K, 25003 kPa, m1 = 0.1348 | 733.89
398.33 K, 25006 kPa, m1 = 0.8018 | 790.16
398.33 K, 25009 kPa, m1 = 1.977 | 881.23
398.33 K, 29990 kPa, m1 = 1.977 | 886.89
398.33 K, 29994 kPa, m1 = 0.8018 | 796.1
398.33 K, 29996 kPa, m1 = 0.1348 | 740.01
398.33 K, 29996 kPa, m1 = 1.039 | 814.47
398.33 K, 29999 kPa, m1 = 5.367 | 1115.75
398.33 K, 30005 kPa, m1 = 0.4768 | 769.51
398.33 K, 34992 kPa, m1 = 0.4768 | 775.14
398.33 K, 34993 kPa, m1 = 0.1348 | 745.75
398.33 K, 35003 kPa, m1 = 5.367 | 1120.56
398.33 K, 35010 kPa, m1 = 1.039 | 819.97
398.33 K, 35011 kPa, m1 = 0.8018 | 801.72
398.33 K, 35014 kPa, m1 = 1.977 | 892.27
398.33 K, 39988 kPa, m1 = 1.977 | 897.37
398.33 K, 39989 kPa, m1 = 0.1348 | 751.12
398.33 K, 39992 kPa, m1 = 0.8018 | 807.01
398.33 K, 39994 kPa, m1 = 5.367 | 1125.22
398.33 K, 39997 kPa, m1 = 1.039 | 825.19
398.33 K, 40002 kPa, m1 = 0.4768 | 780.53
